# Assay results taken from patent US20120172228A1, “ALCOHOL ALKOXYLATES AS ADJUVANTS FOR AGROCHEMICAL FORMULATIONS” (SYNGENTA CROP PROTECTION, LLC, priority 2009, published 2012).
# Legend:
# Assay type in all cases: in vivo
# [1] = tested on: abutilon theophrasti (ABUTH); assay: Adjuvant with herbicide nicosulfuron on ABUTH; conditions: nicosulfuron 30 or 60 g/ha; adjuvants 0.2% of spray water; 14 and 21 days after application
# Method: (§1) In this example Sample 13 from Table 1 was compared to the oil adjuvant blend Turbocharge™. The herbicide fomesafen was applied to the weed species xanthium strumarium (XANST), setaria viridis (SETVI), abutilon theophrasti (ABUTH), and chenopodium album (CHEAL) at rates of 60 or 120 grams per hectare, using a laboratory track sprayer. Each experiment was replicated four times and the percentage damage to the weeds was assessed visually at time periods of 7, 14 and 21 days after application. Each adjuvant was applied at a rate of 0.5% of the volume of the spray water. Four effects were evaluated: pesticide rate (2 levels), adjuvant type (two levels), weed species (four levels) and days after application (three levels). […] The effect of each adjuvant was pulled out from the model and the least significant differences evaluated using a Student's t method. […]
# (§2) In this example the butylene oxide adjuvant Sample 13 of Table 1 was compared to the commercial oil adjuvant blend Atplus™411F. […] Each experiment was replicated four times and the percentage damage to the weeds was assessed visually at time periods of 14 and 21 days after application. […]
# In this example the responses of the butylene oxide adjuvants 13, 17, 19, 21, 22 and 23 of Table 1 were measured at an application rate of 0.2% of the volume of the spray solution used. […]
# setaria viridis (SETVI) = assay: Adjuvant with herbicide pinoxaden on SETVI; conditions: pinoxaden 7.5 or 15 g/ha; butylene oxide adjuvants 0.2%, TEHP 0.5% v/v; 14 and 21 days
# Method: as §1
# (§3) In this example the responses of the adjuvants 13, 17, 19, 21, 22 and 23 were measured at an application rate of 0.2% of the volume of the spray solution used. […] In each case the experiments were replicated four times and the percentage damage to the weeds was assessed visually at time periods of 14 and 21 days after application.
# (§4) In this example the response of butylene oxide sample 27 of Table 1 was measured at an application rate of 0.2% of the volume of the spray solution used. […]
# [2] = tested on: chenopodium album (CHEAL), digitaria sanguinalis (DIGSA), setaria viridis (SETVI), abutilon theophrasti (ABUTH); assay: Adjuvant with herbicide nicosulfuron, track sprayer, mean across four weed species
# Method: as §1, with “levels). A standard simple linear model was constructed to judge the significance of these effects.” for “levels).”
# as §2
# In this example the rate response of the butylene oxide adjuvant Sample 13 of Table 1 was measured and compared to the adjuvant TEHP. […]
# [3] = tested on: alopecurius myosuirides (ALOMY); assay: Adjuvant with herbicide pinoxaden on ALOMY; conditions: 14 and 21 days
# Method: as §1, §3, §4
# lolium perenne (LOLPE) = assay: Adjuvant with herbicide pinoxaden on LOLPE; conditions: 14 and 21 days
# Method: In this example the response of the butylene oxide adjuvant 13 of Table 1 was measured at an application rate of 0.2% of the volume of the spray solution used. It was compared to the adjuvant tris 2-ethylhexyl phosphate [TEHP], which was applied at the higher rate of 0.5% by volume. The herbicide pinoxaden was applied at rates of 7.5, 11.25 or 15 grams per hectare by a laboratory track sprayer to the weed species lolium perenne (LOLPE), alopecurius myosuirides (ALOMY), and avena fatua (AVEFA). In each case the experiments were replicated four times and the percentage damage to the weeds was assessed visually at time periods of 14 and 21 days after application.
# [4] = pinoxaden 7.5, 11.25 or 15 g/ha, Sample 13 0.2%, TEHP 0.5%
# [5] = pinoxaden 7.5 or 15 g/ha, butylene oxide adjuvants 0.2%, TEHP 0.5% v/v
smiles,measurement,setting,value
"CCCCC(CC)COP(=O)(OCC(CC)CCCC)OCC(CC)CCCC (centres unmarked) [TEHP, tris 2-ethylhexyl phosphate]","mean efficacy (percentage damage to the weeds), ABUTH",[1],17.92; B %
same,"mean efficacy (percentage damage to the weeds), SETVI",setaria viridis (SETVI),77.5; ABC %
same,"mean efficacy (percentage damage to the weeds), All weeds","[2]; nicosulfuron 30 or 60 g/ha, adjuvants 0.2% of spray water, 14 and 21 days after application",58.12; B %
same,Mean % kill,"[2]; nicosulfuron 30 to 60 g/ha, adjuvant rate 0.2% w/v, across four weed species, 14 and 21 days",58.12%
same,"mean efficacy (percentage damage to the weeds), ALOMY",[3]; [4],43.33; A %
same,"mean efficacy (percentage damage to the weeds), ALOMY",[3]; [5],68.75; AB %
same,"mean efficacy (percentage damage to the weeds), LOLPE",lolium perenne (LOLPE); [4],58.06; A %
same,"mean efficacy (percentage damage to the weeds), LOLPE",lolium perenne (LOLPE); [5],82.5; A %
